In US11639364B2, “Potent sialyltransferase inhibitors” (STICHTING RADBOUD UNIVERSITEIT, priority 2018, dated 2023):
Read-outs that look alike come from different tables or passages of the source.

Columns and labels:
B16-F10 cells [1] = assay: Inhibition of cell surface sialylation by urea, thiocarbamate and sulphonamide analogues (Example 5); assay type: cell-based, Mouse; conditions: for IC50: three days, 0.1-204.8 μM
Description: (§1) Mouse B16-F10 melanoma cells (ATCC CRL-6475) were cultured in Minimum Essential Medium (MEM) (Gibco, Invitrogen, Carlsbad, Calif.) containing 5% fetal bovine serum (FBS) (Greiner Bio-one, Frickenhausen, Germany), 1% MEM non-essential amino acids (Gibco), 0.15% sodium bicarbonate (Gibco), 1 mM sodium pyruvate (Gibco), 1.5% MEM vitamins (Gibco), 1% antibiotic-antimycotic solution (50 U/ml penicillin, 50 μg/ml streptomycin and 125 ng/ml amphotericin B) (Gibco). The murine 9464D neuroblastoma cell line was cultured in Dulbecco's Modified Eagle's Medium (DMEM, Glutamax, Gibco) with 10% FBS, 1% non-essential amino acids, 50 μM 2-mercaptoethanol (Sigma-Aldrich) and 1% antibiotic-antimycotic solution (Kroesen et al., 2014, DOI: 10.1002/ijc.28463, Stauffer et al., 2012, DOI: 10.3109/07357907.2012.664670). The murine EL4 T lymphocyte cell line (ATCC TIB-39) was cultured in Iscove's Modified Dulbecco's Medium (IMDM, Gibco) supplemented with 5% FBS and 1% antibiotic-antimycotic solution. Human HEK293 (ATCC CRL-1573) kidney cells and human HeLa (ATCC CCL-2) cervical cancer cells were cultured in DMEM containing 10% FBS, 2 mM glutamine (Lonza, Walkersville, Md.) and 1% antibiotic-antimycotic solution. Human monocytic THP-1 cells (TIB-202, ATCC) were cultured in RRMI-1640 medium (Gibco) supplemented with 10% FBS, 2 mM glutamine and 1% antibiotic-antimycotic solution. All cell lines were cultured in a humidified 5% CO2 incubator at 37° C.
(§2) For the lectin staining, all cells were harvested and washed with 1× carbo-free blocking solution (Vector Laboratories, Inc., Burlingame, Calif., USA) and stained for 45 minutes at 4° C. in 1× carbo-free blocking solution containing 1 mM CaCl2), 1 mM MgCl2 and biotinylated MALII (5 μg/ml), SNA-1 (1 μg/ml) or PNA (5 μg/ml) all obtained from Vector Laboratories Inc. MALII recognizes α2,3-linked sialic acids, SNA-1 recognizes α2,6-linked sialic acids and PNA binds to terminal 3-galactose. In addition, B16-F10 cells were stained with 2 μg/ml biotinylated AAL (α-linked Fucose), LCA (α-linked Mannose), PHA-L (complex glycans), GSL-I (α-linked Galactose and N-Acetylgalactosamine), WGA (chitobiose), SJA (β-linked Galactose and N-Acetylgalactosamine) and PSA (Glucose and Mannose) purchased from Vector Laboratories Inc. Next, the cells were washed thrice in PBA (1×PBS, 1% BSA, and 0.02% sodium azide) and stained for 10 minutes at 4° C. with 2 μg/ml streptavidin-phycoerythrin (PE) (BD Pharmingen, Franklin Lakes, N.J., USA). The cells were washed thrice again with PBA and fluorescence was assessed using a CyAn ADP flow cytometer (BD Biosciences, San Jose, Calif.) followed by analysis with FlowJo software (Tree Star Inc., Ashland, Oreg.). Untreated cells stained with streptavidin-PE only served as background fluorescence control. The percentages lectin binding was calculated by normalizing the mean fluorescence intensity values from the treated cells with the DMSO controls.
(§3) IC50 values and statistics were calculated using Prism 5.03 (GraphPad Software, Inc., La Jolla, Calif.). Statistical significance between the different groups was calculated using one-way ANOVA followed by Bonferroni post-hoc testing and P-values<0.05 were considered significant (p<0.05 *, p<0.01 **, p<0.001 ***).
Analogous to example 3, the inhibitory potency of thiocarbamate 28, urea 29, and sulphonamides 30 and 31 on the sialic acid biosynthesis was assayed. To this end, B16-F10 cells were fed sialic acid precursors for three day at various concentrations (0.1-204.8 μM). The decrease in cell surface sialylation was measured using biotinylated lectins that are specific for binding α2,3-linked (MALII) or α2,6-linked (SNA-1) sialic acid residues, subsequently visualized using streptavidin-phycoerythrin. Conversely, binding of the underlying galactose residue uncovered by desialylation was measured using a galactose specific lectin (Peanut, Agglutinin Lectin, PNA). No inhibition was observed without a P-3Fax-Neu derivative present (DMSO vehicle control). […]

HEK293 cells = assay: Inhibition of cell surface sialylation, lectin staining and flow cytometry, HEK293 cells; assay type: cell-based, Human; conditions: three days
Description: as §1
(§4) To assess the effect of the synthesized compounds on cell surface sialylation, different murine and human cell lines were cultured for three days in the presence of 0-204.8 μM amide and carbamate fluorine sialic acids. Cells treated with an equal final percentage of DMSO were used as control and all cells were subjected to lectin staining and flow cytometry as described below. To investigate the longevity of the effect of the fluorine sialic acids on cell surface sialylation, B16-F10 cells treated with 25.6 μM or 51.2 μM were thoroughly washed with medium to remove fluorine sialic acids from the culture and reseeded. During a period of six days, cells were harvested every day and sialylation was assessed by flow cytometry.
as §2
as §3, with “***). […]” for “***).”

B16-F10 cells [2] = assay: Inhibition of cell surface sialylation, lectin staining and flow cytometry, B16-F10 cells; assay type: cell-based, Mouse; conditions: three days
Description: as §1, §4, §2
as §3, with “***). […]” for “***).”

9464D cells = assay: Inhibition of cell surface sialylation, lectin staining and flow cytometry, 9464D cells; assay type: cell-based, murine; conditions: three days
Description: as §1, §4, §2
as §3, with “***). […]” for “***).”

THP-1 cells = assay: Inhibition of cell surface sialylation, lectin staining and flow cytometry, THP-1 cells; assay type: cell-based, Human; conditions: three days
Description: as §1, §4, §2
as §3, with “***). […]” for “***).”

EL4 cells = assay: Inhibition of cell surface sialylation, lectin staining and flow cytometry, EL4 cells; assay type: cell-based, murine; conditions: three days
Description: as §1, §4, §2
as §3, with “***). […]” for “***).”

HeLa cells = assay: Inhibition of cell surface sialylation, lectin staining and flow cytometry, HeLa cells; assay type: cell-based, human; conditions: three days
Description: as §1, §4, §2
as §3, with “***). […]” for “***).”

[3] = Example 5, read-out: α2,3-Sia IC50 (MAL)
[4] = Example 5, read-out: α2,6-Sia IC50 (SNA)
[5] = MALII lectin binding, read-out: α2,3-Sia IC50
[6] = SNA-I lectin binding, read-out: α2,6-Sia IC50
[7] = Homo sapiens, 72 h, MALII lectin binding, read-out: α2,3-Sia IC50
[8] = Homo sapiens, 72 h, SNA-I lectin binding, read-out: α2,6-Sia IC50
[9] = Mus musculus, 72 h, MALII lectin binding, read-out: α2,3-Sia IC50
[10] = Mus musculus, 72 h, SNA-I lectin binding, read-out: α2,6-Sia IC50

Compound	IC50 (B16-F10 cells [2]; [9]) [µM]	IC50 (B16-F10 cells [2]; [10]) [µM]	IC50 (9464D cells; [9]) [µM]	IC50 (9464D cells; [10]) [µM]	IC50 (THP-1 cells; [7]) [µM]	IC50 (THP-1 cells; [8]) [µM]	IC50 (EL4 cells; [9]) [µM]	IC50 (EL4 cells; [10]) [µM]	IC50 (HeLa cells; [7]) [µM]	IC50 (HeLa cells; [8]) [µM]	IC50 (B16-F10 cells [1]; [3]) [µM]	IC50 (B16-F10 cells [1]; [4]) [µM]	IC50 (HEK293 cells; [7]) [µM]	IC50 (HEK293 cells; [8]) [µM]	other results
Methyl 5-(methylsulfonamido)-2,4,7,8,9-penta-O-acetyl-3,5-dideoxy-3-fluoro-D-glycero-β-galacto-non-2-ulopyranosonate [Sulphonamide 30]	–	–	–	–	–	–	–	–	–	–	9.9	–	–	–	inhibition of sialylation compared with the acetate (B16-F10 cells [1]; FIG. 8): outperforming the acetate at various concentrations
Methyl 5-N-ethylamidnocarbonyl)-2,4,7,8,9-penta-O-acetyl-3,5-dideoxy-3-fluoro-D-glycero-β-galacto-non-2-ulopyranosonate [Urea 29]	–	–	–	–	–	–	–	–	–	–	4.2	4.89	–	–	–
COC(=O)C1(OC(C)=O)O[C@@H]([C@H](OC(C)=O)[C@@H](COC(C)=O)OC(C)=O)[C@H](NC(C)=O)[C@@H](OC(C)=O)[C@H]1F (stereo partly drawn) [SiaFAc, Methyl 5-(acetamido)-2,4,7,8,9-penta-O-acetyl-3,5-dideoxy-3-fluoro-D-glycero-β-galacto-non-2-ulopyranosonate, reference compound]	–	–	–	–	–	–	–	–	–	–	–	20.9	–	–	IC50 (HEK293 cells; [5]): 45.2 ± 8.3 µM; IC50 (HEK293 cells; [6]): 36.7 ± 3.59 µM; IC50 (B16-F10 cells [2]; [5]): 26.8 ± 5.72 µM; IC50 (B16-F10 cells [2]; [6]): 32.8 ± 3.08 µM; IC50 (9464D cells; [5]): > 102 µM; IC50 (9464D cells; [6]): > 102 µM; IC50 (THP-1 cells; [5]): 8.5 ± 1.54 µM; IC50 (THP-1 cells; [6]): 10.9 ± 2.47 µM; IC50 (EL4 cells; [5]): > 102 µM; IC50 (EL4 cells; [6]): > 102 µM; IC50 (HeLa cells; [5]): 53 ± 3.61 µM; IC50 (HeLa cells; [6]): 34.5 ± 2.18 µM
Methyl 5-(S-ethylthiocarbamado)-2,4,7,8,9-penta-O-acetyl-3,5-dideoxy-3-fluoro-D-glycero-β-galacto-non-2-ulopyranosonate [Thiocarbamate 28]	–	–	–	–	–	–	–	–	–	–	1.68	4.83	–	–	–

Further lines, with some results ahead:

IC50 (B16-F10 cells [2]; [9]) [µM]	IC50 (B16-F10 cells [2]; [10]) [µM]	IC50 (9464D cells; [9]) [µM]	IC50 (9464D cells; [10]) [µM]	IC50 (THP-1 cells; [7]) [µM]	IC50 (THP-1 cells; [8]) [µM]	IC50 (EL4 cells; [9]) [µM]	IC50 (EL4 cells; [10]) [µM]	IC50 (HeLa cells; [7]) [µM]	IC50 (HeLa cells; [8]) [µM]	Compound	IC50 (B16-F10 cells [1]; [3]) [µM]	IC50 (B16-F10 cells [1]; [4]) [µM]	IC50 (HEK293 cells; [7]) [µM]	IC50 (HEK293 cells; [8]) [µM]	other results
1.78 ± 0.16	3.87 ± 1.14	8.91 ± 2.38	28.1 ± 5.51	0.45 ± 0.74	0.37	42 ± 11	50.6 ± 8.84	2.02 ± 1.52	1.67 ± 1.31	CCOC(=O)N[C@@H]1C(OC(C)=O)C(F)C(OC(C)=O)(C(=O)OC)OC1[C@H](OC(C)=O)[C@@H](COC(C)=O)OC(C)=O (stereo partly drawn) [SiaFEt, Methyl 5-(ethylcarbamado)-2,4,7,8,9-penta-O-acetyl-3,5-dideoxy-3-fluoro-D-glycero-β-galacto-non-2-ulopyranosonate]	–	–	2.02 ± 2.72	1.57 ± 4.23	IC50 (B16-F10 cells [1]; Mus musculus, 72 h, Example 5, read-out: α2,3-Sia IC50 (MAL)): 0.929 µM; IC50 (B16-F10 cells [1]; Mus musculus, 72 h, Example 5, read-out: α2,6-Sia IC50 (SNA)): 3.92 µM
14.3 ± 0.77	33.3 ± 2.63	46.5 ± 4.41	> 102	3.3 ± 1.26	7.19 ± 3.6	> 102	> 102	25.5 ± 2.61	33.4 ± 4.38	COC(=O)C1(OC(C)=O)OC([C@H](OC(C)=O)[C@@H](COC(C)=O)OC(C)=O)[C@H](NC(=O)C(F)(F)F)C(OC(C)=O)C1F (stereo partly drawn) [SiaFTFA, Methyl 5-(trifluoroacetamido)-2,4,7,8,9-penta-O-acetyl-3,5-dideoxy-3-fluoro-D-glycero-β-galacto-non-2-ulopyranosonate, reference compound]	–	–	42.8 ± 2.38	41.4 ± 10.4	–
